Measured values taken from patent publication US20110045100A1, “Antimalarial Quinolines and Methods of Use Thereof” (GEORGETOWN UNIVERSITY, priority 2008, published 2011).

How the values were obtained:
[1] = test system: Dd2 (chloroquine resistant strain of P. falciparum); assay: SYBR Green I antiplasmodial assay, strain Dd2; type: cell-based, Plasmodium falciparum; conditions: strain Dd2
Text: (§1) Bennett T. N.; Paguio, M.; Gligorijevic, B.; Seudieu, C.; Kosar, A. D.; Davidson, E.; Roepe, P. D. Novel, rapid, and inexpensive cell-based quantification of antimalarial drug efficacy. Antimicrob. Agents Chemother. 2004, 48, 1807-1810; Smilkstein, M.; Sriwilaijaroen, N.; Kelly, J. X.; Wilairat, P.; Riscoe, M. Simple and inexpensive fluorescence-based technique for high-throughput antimalarial drug screening. Antimicrob. Agents Chemother. 2004, 48, 1803-1806; and Johnson, J. D.; Dennull, R. A.; Gerena, L.; Lopez-Sanchez, M.; Roncal, N. E.; Waters, N.C. Assessment and continued validation of the malaria SYBR green I-based fluorescence assay for use in malaria drug screening. Antimicrob. Agents Chemother. 2007, 51, 1926-1933. […] Drake, N. L.; Creech, H. J.; Garman, J. A.; Haywood, S. T.; Peck, R. M.; van Hook, J. O.; Walton, E. Synthetic antimalrials. The preparation of certain 4-aminoquinolines. J. Am. Chem. Soc. […] Trans. R. Soc. Trop. Med. Hyg. […] J. Parasitol. 1983, 69, 97-105. The selectivity index provides a quantitative measure of the antimalarial activity against CQR strains relative to that against sensitive strains and thus indicates promising drug discovery leads. […] This can be combined with the introduction of a third basic amino function which should further favor accumulation of the drug within the acidic food vacuole of the parasite.
The antiplasmodial activity of these compounds was measured versus a CQS (HB3) and a CQR (Dd2) strain using a standardized, inexpensive assay based on SYBR Green I intercalation. Bennett T. N.; Paguio, M.; Gligorijevic, B.; Seudieu, C.; Kosar, A. D.; Davidson, E.; Roepe, P. D. Antimicrob. Agents Chemother. 2004, 48, 1807-1810; Smilkstein, M.; Sriwilaijaroen, N.; Kelly, J. X.; Wilairat, P.; Riscoe, M. Antimicrob. Agents Chemother. 2004, 48, 1803-1806; and Johnson, J. D.; Dennull, R. A.; Gerena, L.; Lopez-Sanchez, M.; Roncal, N. E.; Waters, N.C. Antimicrob. Agents Chemother. 2007, 51, 1926-1933. […] De, D.; Krogstad, F. M.; Cogswell, F. B.; Krogstad, D. J. Am. J. Trop. Med. Hyg. 1996, 55, 579-583. […] The basic tertiary amino function in the side chain is commonly believed to be crucial for the accumulation of the drug within the acidic food DV.
Drug activities were assessed and IC50 were quantified essentially as described previously. Delarue, S.; Girault, S.; Maes, L.; Debreu-Fontaine, M. A.; Labaeid, M.; Grellier, P.; Sergheraert, C. Synthesis and in vitro and in vivo antimalarial activity of new 4-anilinoquinolines. J. Med. Chem. 2001, 44, 2827-2833; and O'Neill, P. M.; Willock, D. J.; Hawley, S. R.; Bray, P. G.; Storr, R. C.; Ward, S. A.; Park, B. K. Synthesis, antimalarial activity, and molecular modeling of tebuquine analogues. J. Med. Chem. 1997, 40, 437-448. The aminoquinolines were diluted using complete media under sterile conditions and plated in a 96 well plate format. Sorbitol synchronized cultures were utilized with >95% of the parasites at the ring stage. Cultures were diluted to give a working stock of 0.5% parasitemia and 2% hematocrit (final hematocrit 1% & 0.5% Parasitemia). The plates were incubated for 72 h at 37° C. After 72 h, 50 μL of 10×SYBR green I dye was added to each well, and the plate was incubated for 1 h at 37° C. Fluorescence was measured at 530 nm (490 nm excitation) using a spectra geminiEM plate reader. Data analysis was performed using sigma plot 9.0 software after downloading data in Excel format.

[2] = test system: CQS (HB3, GCO3) and CQR (Dd2, FCB) strains of P. falciparum; assay: SYBR Green I antiplasmodial assay, several CQS and CQR strains; type: cell-based, Plasmodium falciparum; conditions: Plasmodium falciparum; read-out: IC50 vs. CQR parasites
Text: as §1
Bennett T. N.; Paguio, M.; Gligorijevic, B.; Seudieu, C.; Kosar, A. D.; Davidson, E.; Roepe, P. D. Novel, rapid, and inexpensive cell-based quantification of antimalarial drug efficacy. Antimicrob. Agents Chemother. 2004, 48, 1807-1810; Smilkstein, M.; Sriwilaijaroen, N.; Kelly, J. X.; Wilairat, P.; Riscoe, M. Simple and inexpensive fluorescence-based technique for high-throughput antimalarial drug screening. Antimicrob. Agents Chemother. 2004, 48, 1803-1806; and Johnson, J. D.; Dennull, R. A.; Gerena, L.; Lopez-Sanchez, M.; Roncal, N. E.; Waters, N.C. Assessment and continued validation of the malaria SYBR green I-based fluorescence assay for use in malaria drug screening. Antimicrob. Agents Chemother. 2007, 51, 1926-1933.
Drug activities were assessed and IC50 were quantified essentially as described previously. Delarue, S.; Girault, S.; Maes, L.; Debreu-Fontaine, M. A.; Labaeid, M.; Grellier, P.; Sergheraert, C. Synthesis and in vitro and in vivo antimalarial activity of new 4-anilinoquinolines. J. Med. Chem. 2001, 44, 2827-2833; and O'Neill, P. M.; Willock, D. J.; Hawley, S. R.; Bray, P. G.; Storr, R. C.; Ward, S. A.; Park, B. K. Synthesis, antimalarial activity, and molecular modeling of tebuquine analogues. J. Med. Chem. 1997, 40, 437-448.

fold lower IC50 relative to 98 [1]: 4 fold
IC50 [2]: ~1000 nM
SMILES: CCN(CC)CCCCOc1ccnc2cc(Cl)ccc12 [compound 93, O-(7-Chloro-4-quinolyl)-4-(N,N-diethylamino)butanol]
